The values below come from ChEMBL document CHEMBL5696442, “Discovery of type II inhibitors of TGFβ-activated kinase 1 (TAK1) and mitogen-activated protein kinase kinase kinase kinase 2 (MAP4K2)” (J Med Chem, 2015).

Activity calls are given as the source filed them. The calls are words filed in the database; no cut-off is given here.

Assay [1] addresses Serine/threonine-protein kinase VRK2 (Homo sapiens) (UniProt Q86Y07). Nature of the assay: Inhibition of VRK2 (unknown origin) at 1 uM by Ambit Kinomescan binding assay relative to control.
The target in assay [2] is RAC-alpha serine/threonine-protein kinase (Homo sapiens) (UniProt P31749). Nature of the assay: Inhibition of AKT1 ATP Loop labeling site in human A-375 cells at 5 uM by KiNativ Profiling analysis relative to control. In kind it is cell-based.
Assay [3] addresses T1, Serine/threonine-protein kinase 3 (Homo sapiens) (UniProt Q13188).
T1 sequence (whole entry): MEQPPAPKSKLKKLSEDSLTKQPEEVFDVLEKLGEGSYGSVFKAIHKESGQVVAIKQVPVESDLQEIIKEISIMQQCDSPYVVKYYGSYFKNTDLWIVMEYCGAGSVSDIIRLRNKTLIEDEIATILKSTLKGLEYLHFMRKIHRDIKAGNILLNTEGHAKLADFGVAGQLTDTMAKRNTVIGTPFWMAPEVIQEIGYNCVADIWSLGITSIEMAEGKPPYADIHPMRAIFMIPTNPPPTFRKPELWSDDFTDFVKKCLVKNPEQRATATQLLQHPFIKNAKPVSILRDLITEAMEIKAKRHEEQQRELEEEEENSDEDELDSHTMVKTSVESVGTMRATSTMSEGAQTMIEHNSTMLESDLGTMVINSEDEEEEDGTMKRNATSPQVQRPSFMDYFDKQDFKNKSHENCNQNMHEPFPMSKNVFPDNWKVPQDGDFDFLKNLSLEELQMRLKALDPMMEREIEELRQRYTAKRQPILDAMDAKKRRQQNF
Nature of the assay: Inhibition of MST2 Lys1 labeling site in human A-375 cells at 0.5 uM by KiNativ Profiling analysis relative to control. Type of assay: cell-based.

Assay [4] deals with Phosphatidylinositol 4-kinase alpha (Homo sapiens) (UniProt P42356). Nature of the assay: Inhibition of PI4KA ATP labeling site in human A-375 cells at 0.5 uM by KiNativ Profiling analysis relative to control. Type of assay: cell-based.
The target in assay [5] is Serine/threonine-protein kinase B-raf (Homo sapiens, UniProt P15056). The experiment in a line: Inhibition of BRAF Lys2 labeling site in human A-375 cells at 0.05 uM by KiNativ Profiling analysis relative to control. Type of assay: cell-based.
Assay [6] can be described thus: Inhibition of KHS1 Lys1 labeling site in human A-375 cells at 5 uM by KiNativ Profiling analysis relative to control. To be noted: condition cancer.
Assay [7] addresses Ephrin type-B receptor 1 (Homo sapiens) (UniProt P54762). Nature of the assay: Inhibition of EPHB1 (unknown origin) at 10 uM by Ambit Kinomescan binding assay.
Assay [8] concerns Fibroblast growth factor receptor 3 (Homo sapiens), P22607 [G697C]. Nature of the assay: Inhibition of FGFR3 G697C mutant (unknown origin) at 10 uM by Ambit Kinomescan binding assay relative to control.
The target of assay [9] is Serine/threonine-protein kinase Nek6 (Homo sapiens) (UniProt Q9HC98). The experiment in a line: Inhibition of NEK6 (unknown origin) at 10 uM by Ambit Kinomescan binding assay.
Assay [10] concerns the target Tyrosine-protein kinase CSK (Homo sapiens, UniProt P41240). Nature of the assay: Inhibition of CSK ACT labeling site harbouring VSDFGLTKEASSTQDTGKLPVKWTAPEALR in human A-375 cells at 5 uM by KiNativ Profiling analysis relative to control. In kind it is cell-based.
In assay [11] the target is T2, Scaffold protein ILK (Homo sapiens) (UniProt Q13418).
T2 sequence (whole entry): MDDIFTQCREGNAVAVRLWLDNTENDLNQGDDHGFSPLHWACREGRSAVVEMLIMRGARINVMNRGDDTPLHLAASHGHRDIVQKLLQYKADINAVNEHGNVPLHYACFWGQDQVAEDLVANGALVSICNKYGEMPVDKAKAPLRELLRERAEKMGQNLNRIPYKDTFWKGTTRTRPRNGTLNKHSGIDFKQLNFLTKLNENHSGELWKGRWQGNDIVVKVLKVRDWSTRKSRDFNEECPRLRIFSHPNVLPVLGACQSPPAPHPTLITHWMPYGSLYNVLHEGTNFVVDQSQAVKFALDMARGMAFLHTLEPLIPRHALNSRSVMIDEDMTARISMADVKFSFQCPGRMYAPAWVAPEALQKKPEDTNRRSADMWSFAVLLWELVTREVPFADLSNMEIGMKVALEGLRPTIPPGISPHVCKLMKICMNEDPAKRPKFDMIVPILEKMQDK
Nature of the assay: Inhibition of ILK Protein Kinase Domain in human A-375 cells at 0.5 uM by KiNativ Profiling analysis relative to control. In kind it is cell-based.

Assay [12] has as its target Rho-associated protein kinase 2 (Homo sapiens) (UniProt O75116). Nature of the assay: Inhibition of ROCK2 Lys2 labeling site in human A-375 cells at 0.05 uM by KiNativ Profiling analysis relative to control. Type of assay: cell-based.
The target in assay [13] is Serine/threonine-protein kinase MARK2 (Homo sapiens) (UniProt Q7KZI7). Nature of the assay: Inhibition of MARK2 K1 labeling site harbouring HILTGKEVAVKIIDKTQLNSSSLQK in human Huh-7 cells at 10 uM by KiNativ Profiling analysis relative to control. Type of assay: cell-based.
Assay [14] concerns the target Ribosomal protein S6 kinase alpha-3 (Homo sapiens) (UniProt P51812). The experiment in a line: Inhibition of RSK2 Domain 2 K1 labeling site in human Huh-7 cells at 10 uM by KiNativ Profiling analysis relative to control. Type of assay: cell-based.
Assay [15] deals with Casein kinase I isoform delta (Homo sapiens) (UniProt P48730). The experiment in a line: Inhibition of CK1 delta K2 labeling site in human Huh-7 cells at 1 uM by KiNativ Profiling analysis relative to control. Type of assay: cell-based.
Assay [16] has as its target Serine/threonine-protein kinase 35 (Homo sapiens) (UniProt Q8TDR2). Nature of the assay: Inhibition of STK35 (unknown origin) at 10 uM by Ambit Kinomescan binding assay relative to control; values are per cent of control.
The target in assay [17] is T3, Serine/threonine-protein kinase ULK3 (Homo sapiens) (UniProt Q6PHR2).
T3 sequence (whole entry): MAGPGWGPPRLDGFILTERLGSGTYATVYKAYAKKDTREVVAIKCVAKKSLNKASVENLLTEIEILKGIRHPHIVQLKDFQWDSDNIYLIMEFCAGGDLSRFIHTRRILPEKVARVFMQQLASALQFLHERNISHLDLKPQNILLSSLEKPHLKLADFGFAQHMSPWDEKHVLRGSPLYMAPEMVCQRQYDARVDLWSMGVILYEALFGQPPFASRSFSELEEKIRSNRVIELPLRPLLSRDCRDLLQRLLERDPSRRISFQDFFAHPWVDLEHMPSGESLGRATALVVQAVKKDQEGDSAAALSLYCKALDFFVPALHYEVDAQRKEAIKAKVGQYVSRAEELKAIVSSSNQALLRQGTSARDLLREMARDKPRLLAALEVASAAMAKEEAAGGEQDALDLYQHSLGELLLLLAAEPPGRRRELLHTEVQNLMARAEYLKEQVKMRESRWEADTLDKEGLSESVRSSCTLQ
The experiment in a line: Inhibition of ULK3 Lys1 labeling site in human Huh-7 cell lysate at 1 uM by KiNativ Profiling analysis relative to control. In kind it is subcellular.

For assay [18], the target named is Ribosomal protein S6 kinase alpha-3 (Homo sapiens) (UniProt P51812). Nature of the assay: Inhibition of RSK2 domain2 Lys2 labeling site harbouring DLKPSNILYVDESGNPESIR in human Huh-7 cells at 1 uM by KiNativ Profiling analysis relative to control. In kind it is cell-based.
Sequence of Ribosomal protein S6 kinase alpha-3 (Homo sapiens) (P51812 whole entry, the tested form may be a part, canonical isoform): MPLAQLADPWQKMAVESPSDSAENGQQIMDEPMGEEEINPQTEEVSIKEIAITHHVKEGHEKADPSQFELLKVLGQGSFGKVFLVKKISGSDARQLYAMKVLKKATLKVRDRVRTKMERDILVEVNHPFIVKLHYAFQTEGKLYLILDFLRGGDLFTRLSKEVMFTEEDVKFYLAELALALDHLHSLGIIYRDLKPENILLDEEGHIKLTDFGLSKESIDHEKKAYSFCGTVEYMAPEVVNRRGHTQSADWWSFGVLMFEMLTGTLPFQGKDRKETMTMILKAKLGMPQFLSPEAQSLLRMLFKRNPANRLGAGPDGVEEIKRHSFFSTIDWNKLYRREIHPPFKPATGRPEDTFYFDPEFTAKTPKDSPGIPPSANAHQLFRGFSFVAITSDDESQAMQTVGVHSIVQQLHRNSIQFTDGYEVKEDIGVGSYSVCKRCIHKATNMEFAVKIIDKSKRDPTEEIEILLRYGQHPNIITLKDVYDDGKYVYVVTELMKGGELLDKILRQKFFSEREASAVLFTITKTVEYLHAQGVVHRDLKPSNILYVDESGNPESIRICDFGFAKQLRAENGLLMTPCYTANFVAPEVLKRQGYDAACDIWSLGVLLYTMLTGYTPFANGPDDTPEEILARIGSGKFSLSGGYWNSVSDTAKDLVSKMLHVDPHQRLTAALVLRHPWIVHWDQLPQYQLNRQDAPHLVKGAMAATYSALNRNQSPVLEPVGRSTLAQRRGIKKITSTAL

Sequence of Serine/threonine-protein kinase Nek6 (Homo sapiens) (Q9HC98 whole entry): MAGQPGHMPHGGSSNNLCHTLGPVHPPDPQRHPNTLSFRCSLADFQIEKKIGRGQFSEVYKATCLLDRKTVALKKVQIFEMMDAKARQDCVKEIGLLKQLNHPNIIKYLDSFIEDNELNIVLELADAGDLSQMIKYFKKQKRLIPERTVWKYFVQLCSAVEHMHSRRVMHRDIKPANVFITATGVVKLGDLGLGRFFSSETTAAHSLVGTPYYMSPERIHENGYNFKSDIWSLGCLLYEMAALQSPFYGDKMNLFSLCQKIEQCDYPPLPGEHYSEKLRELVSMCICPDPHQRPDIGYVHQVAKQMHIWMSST
Sequence of Phosphatidylinositol 4-kinase alpha (Homo sapiens) (P42356 whole entry, looked up): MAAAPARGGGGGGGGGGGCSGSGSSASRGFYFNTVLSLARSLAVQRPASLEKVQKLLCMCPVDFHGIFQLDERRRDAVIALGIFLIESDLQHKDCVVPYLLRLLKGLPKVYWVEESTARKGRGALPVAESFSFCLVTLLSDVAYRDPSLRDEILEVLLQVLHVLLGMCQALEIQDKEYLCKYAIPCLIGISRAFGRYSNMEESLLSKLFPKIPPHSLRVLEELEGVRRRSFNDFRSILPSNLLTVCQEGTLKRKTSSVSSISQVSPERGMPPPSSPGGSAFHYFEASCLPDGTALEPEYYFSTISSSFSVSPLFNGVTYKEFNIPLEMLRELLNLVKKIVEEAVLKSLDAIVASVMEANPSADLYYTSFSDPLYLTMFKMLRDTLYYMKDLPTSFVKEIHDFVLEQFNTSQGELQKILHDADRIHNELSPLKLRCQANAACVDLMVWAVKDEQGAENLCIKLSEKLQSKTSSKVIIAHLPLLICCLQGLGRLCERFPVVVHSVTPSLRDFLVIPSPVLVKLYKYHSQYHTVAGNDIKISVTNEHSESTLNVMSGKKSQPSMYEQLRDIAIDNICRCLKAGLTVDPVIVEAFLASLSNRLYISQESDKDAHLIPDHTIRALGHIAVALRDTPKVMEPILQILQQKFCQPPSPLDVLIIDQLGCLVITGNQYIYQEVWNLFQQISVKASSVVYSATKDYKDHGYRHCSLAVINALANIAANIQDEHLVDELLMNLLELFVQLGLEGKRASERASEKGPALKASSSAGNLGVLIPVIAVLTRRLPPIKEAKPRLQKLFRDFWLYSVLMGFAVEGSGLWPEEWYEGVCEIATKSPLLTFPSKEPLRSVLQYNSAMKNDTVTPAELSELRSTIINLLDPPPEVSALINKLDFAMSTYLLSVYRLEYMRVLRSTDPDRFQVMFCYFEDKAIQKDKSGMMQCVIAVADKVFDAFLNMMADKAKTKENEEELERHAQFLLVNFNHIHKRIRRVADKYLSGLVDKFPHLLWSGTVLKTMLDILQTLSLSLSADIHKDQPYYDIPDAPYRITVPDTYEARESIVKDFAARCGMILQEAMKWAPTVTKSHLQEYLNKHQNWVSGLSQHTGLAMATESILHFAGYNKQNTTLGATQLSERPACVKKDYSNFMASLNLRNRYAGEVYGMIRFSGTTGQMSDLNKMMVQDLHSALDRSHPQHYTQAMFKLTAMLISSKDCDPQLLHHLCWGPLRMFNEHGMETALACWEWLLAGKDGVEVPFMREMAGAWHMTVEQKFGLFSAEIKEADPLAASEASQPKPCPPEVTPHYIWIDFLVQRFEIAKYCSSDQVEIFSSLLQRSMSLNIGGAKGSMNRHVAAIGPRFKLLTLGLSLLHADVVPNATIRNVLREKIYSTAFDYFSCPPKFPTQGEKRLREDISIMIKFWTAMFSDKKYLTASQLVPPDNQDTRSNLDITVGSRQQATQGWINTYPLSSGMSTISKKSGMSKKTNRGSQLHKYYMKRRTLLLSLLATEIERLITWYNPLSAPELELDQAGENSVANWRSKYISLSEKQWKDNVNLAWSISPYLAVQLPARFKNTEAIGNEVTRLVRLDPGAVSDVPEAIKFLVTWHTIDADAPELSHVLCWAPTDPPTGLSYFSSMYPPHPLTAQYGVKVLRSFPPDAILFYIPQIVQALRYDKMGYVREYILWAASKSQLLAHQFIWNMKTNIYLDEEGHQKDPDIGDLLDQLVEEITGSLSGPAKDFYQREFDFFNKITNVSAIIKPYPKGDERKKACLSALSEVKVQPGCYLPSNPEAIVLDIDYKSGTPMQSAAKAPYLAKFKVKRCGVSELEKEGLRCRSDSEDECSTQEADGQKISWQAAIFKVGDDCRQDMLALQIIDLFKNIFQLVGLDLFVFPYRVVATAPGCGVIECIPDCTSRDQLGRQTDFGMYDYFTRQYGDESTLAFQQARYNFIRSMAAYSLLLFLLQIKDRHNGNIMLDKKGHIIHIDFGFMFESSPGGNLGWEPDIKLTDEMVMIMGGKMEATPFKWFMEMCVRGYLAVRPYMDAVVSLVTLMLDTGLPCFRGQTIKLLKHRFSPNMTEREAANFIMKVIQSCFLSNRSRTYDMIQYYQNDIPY
Sequence of Tyrosine-protein kinase CSK (P41240 2-450 limits assumed): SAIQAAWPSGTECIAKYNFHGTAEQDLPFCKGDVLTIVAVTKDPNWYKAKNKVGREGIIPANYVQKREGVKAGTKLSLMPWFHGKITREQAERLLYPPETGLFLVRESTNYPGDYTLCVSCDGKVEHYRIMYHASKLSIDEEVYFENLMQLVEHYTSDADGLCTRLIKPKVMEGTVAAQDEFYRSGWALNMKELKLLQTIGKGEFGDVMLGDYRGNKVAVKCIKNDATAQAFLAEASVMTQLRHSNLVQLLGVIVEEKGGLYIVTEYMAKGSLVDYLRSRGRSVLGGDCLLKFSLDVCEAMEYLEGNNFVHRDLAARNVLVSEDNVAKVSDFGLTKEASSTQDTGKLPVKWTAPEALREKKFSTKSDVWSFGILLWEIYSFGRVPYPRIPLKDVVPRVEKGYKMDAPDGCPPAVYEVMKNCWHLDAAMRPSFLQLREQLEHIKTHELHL
Sequence of Fibroblast growth factor receptor 3 (Homo sapiens), P22607 [G697C] (P22607 whole entry G697C): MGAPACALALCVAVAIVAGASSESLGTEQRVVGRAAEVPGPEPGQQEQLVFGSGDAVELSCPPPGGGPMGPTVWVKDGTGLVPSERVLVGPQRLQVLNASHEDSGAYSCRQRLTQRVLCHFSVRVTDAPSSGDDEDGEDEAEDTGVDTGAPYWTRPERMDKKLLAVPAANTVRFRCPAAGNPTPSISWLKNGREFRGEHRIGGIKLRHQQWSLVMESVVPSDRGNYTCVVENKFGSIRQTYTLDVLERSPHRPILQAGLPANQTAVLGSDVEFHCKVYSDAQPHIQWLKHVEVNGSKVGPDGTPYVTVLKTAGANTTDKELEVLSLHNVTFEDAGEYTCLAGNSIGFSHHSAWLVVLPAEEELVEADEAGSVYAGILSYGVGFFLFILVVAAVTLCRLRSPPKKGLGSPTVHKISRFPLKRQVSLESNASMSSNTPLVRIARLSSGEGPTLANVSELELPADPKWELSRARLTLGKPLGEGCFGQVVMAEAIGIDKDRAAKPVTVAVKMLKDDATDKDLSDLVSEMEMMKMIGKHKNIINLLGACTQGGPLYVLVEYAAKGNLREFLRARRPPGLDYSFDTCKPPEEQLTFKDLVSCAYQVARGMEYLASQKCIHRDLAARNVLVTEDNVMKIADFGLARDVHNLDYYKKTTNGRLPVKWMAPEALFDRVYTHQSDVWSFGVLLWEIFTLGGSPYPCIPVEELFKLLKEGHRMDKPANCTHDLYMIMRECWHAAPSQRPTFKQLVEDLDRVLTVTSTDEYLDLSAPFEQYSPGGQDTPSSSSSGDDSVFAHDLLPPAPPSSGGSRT
Sequence of Serine/threonine-protein kinase VRK2 (Homo sapiens) (Q86Y07 whole entry): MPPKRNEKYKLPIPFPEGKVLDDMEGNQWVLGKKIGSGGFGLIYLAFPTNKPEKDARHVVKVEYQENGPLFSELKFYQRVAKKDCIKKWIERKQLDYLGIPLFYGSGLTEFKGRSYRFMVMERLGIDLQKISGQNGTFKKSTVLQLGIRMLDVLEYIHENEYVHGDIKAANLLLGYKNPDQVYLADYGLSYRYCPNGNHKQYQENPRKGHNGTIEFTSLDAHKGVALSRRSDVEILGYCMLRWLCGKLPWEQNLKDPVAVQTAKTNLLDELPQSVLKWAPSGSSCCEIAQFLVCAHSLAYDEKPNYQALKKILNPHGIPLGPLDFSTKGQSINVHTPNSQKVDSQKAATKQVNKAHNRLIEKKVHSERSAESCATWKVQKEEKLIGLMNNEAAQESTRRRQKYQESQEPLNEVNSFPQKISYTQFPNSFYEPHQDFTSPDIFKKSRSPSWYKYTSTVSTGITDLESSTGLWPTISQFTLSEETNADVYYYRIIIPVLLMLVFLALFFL

Regarding `CCN1CCN(Cc2ccc(NC(=O)c3ccc(C)c(/C=C/c4cnc5[nH]ccc5c4OC)c3)cc2C(F)(F)F)CC1`, the inhibition – broadly, the relative decrease from the control value, in per cent – was 100% in assay [1]; 10.4% in assay [2]; 8.2% in assay [3]; -8% in assay [4]; 29.6% in assay [5].
In the case of `CCN1CCN(Cc2ccc(NC(=O)c3ccc(C)c(Oc4ccnc5[nH]ccc45)c3)cc2C(F)(F)F)CC1`, the inhibition at 5 µM in assay [6] worked out at 61.3%. For the same compound, the inhibition entry in assay [7], in assay [9], in [13] and in assay [14] was “inactive” in each case. The inhibition turned out to be 16% in assay [8]; 57.7% in assay [10]; 1.9% in assay [11]; 6% in assay [12]; 18.5% in [15]. For the same compound, the residual activity (as a rule, what remains of the control signal, in per cent) in assay [16] is 3%.
On to `CNc1cc(Oc2cc(C(=O)Nc3cc(N4CCN(C)CC4)cc(C(F)(F)F)c3)ccc2C)ncn1`, for which the inhibition was -5.1% in assay [17] and 11.7% in assay [18].
